{"source": "ChEMBL document CHEMBL1125304", "about": "“Synthesis and antitumor activity of 3- and 5-hydroxy-4-methylpyridine-2-carboxaldehyde thiosemicarbazones” (1992)", "key": {"[1]": {"test_system": "Mus musculus", "test": "Ratio of the survival time of treated to control mice bearing the L1210 leukemia after intraperitoneal administration of the 40 mg/kg compound in the DMSO solution form"}, "[2]": {"test_system": "Mus musculus", "test": "Average weight change of mice bearing the L1210 leukemia (24 hr after tumor implantation) after intraperitoneal administration of the 40 mg/kg compound in the DMSO solution form"}, "[3]": {"test_system": "Mus musculus", "test": "Ratio of the survival time of treated to control mice bearing the L1210 leukemia after intraperitoneal administration of the 50 mg/kg compound in the suspension form"}, "[4]": {"test_system": "Mus musculus", "test": "Average weight change of mice bearing the L1210 leukemia (24 hr after tumor implantation) after intraperitoneal administration of the 50 mg/kg compound in the suspension form"}, "[5]": {"test_system": "Mus musculus", "test": "Ratio of the survival time of treated to control mice bearing the L1210 leukemia after intraperitoneal administration of the 40 mg/kg compound in the suspension form"}, "[6]": {"test_system": "Mus musculus", "test": "Average weight change of mice bearing the L1210 leukemia (24 hr after tumor implantation) after intraperitoneal administration of the 40 mg/kg compound in the suspension form"}}}
{"smiles": "N/C(S)=N/N=C/c1ncccc1O", "values": [{"measurement": "T/C", "setting": "[1]", "value": 114, "unit": "%"}, {"measurement": "Average weight change", "setting": "[2]", "value": 1.5, "unit": "%"}]}
{"smiles": "Cc1ccnc(/C=N/N=C(/N)S)c1O", "values": [{"measurement": "T/C", "setting": "[3]", "value": 168, "unit": "%"}, {"measurement": "T/C", "setting": "[1]", "value": 135, "unit": "%"}, {"measurement": "Average weight change", "setting": "[4]", "value": 0.9, "unit": "%"}, {"measurement": "Average weight change", "setting": "[2]", "value": 0.5, "unit": "%"}]}
{"smiles": "Cc1cc(/C=N/N=C(/N)S)ncc1O", "values": [{"measurement": "T/C", "setting": "[5]", "value": 186, "unit": "%"}, {"measurement": "T/C", "setting": "[1]", "value": 138, "unit": "%"}, {"measurement": "Average weight change", "setting": "[6]", "value": -3.4, "unit": "%"}, {"measurement": "Average weight change", "setting": "[2]", "value": -7.4, "unit": "%"}]}
{"smiles": "N/C(S)=N/N=C/c1ccc(O)cn1", "values": [{"measurement": "T/C", "setting": "[1]", "value": 132, "unit": "%"}, {"measurement": "Average weight change", "setting": "[2]", "value": 1.8, "unit": "%"}]}
